System: tape stripping-induced skin barrier disruption in Hos: HR-1 mice
Assay: Mouse model of skin barrier disruption induced by tape stripping (TEWL)
Format: in vivo
Details: TEWL 0 and 1 hour after stripping, average ± standard deviation, n=10
Protocol: The effect of the test compounds on the skin barrier functions was evaluated using a model with skin barrier disruption induced by tape stripping. Trans-epidermal water loss (TEWL) is an evaluation indicator of the skin barrier functions (Journal of Investigative Dermatology, 126, p 2074-2086 (2006)).
Seven-week old male Hos: HR-1 mice (Hoshino Laboratory Animals, Inc.) were subjected to the test (n=10 for each treatment). For oral administration, solutions of test compounds with different concentrations were prepared as follows. […]
(2) The solution of the test compound prepared in (1) was diluted with a 0.5% methylcellulose solution to prepare a solution of the test compound so that the concentration of the test compound was 0.3 mg/mL. TEWL was measured before the test compound was administered (termed as TEWL [pre]). After the TEWL [pre] was measured, the solution of the test compound adjusted as in (1) or (2) was administered orally (dose: 10 mL/kg). […] TEWL immediately after and 1 hour after the tape stripping were measured (termed as TEWL [0 hour], TEWL [1 hour], respectively), % Barrier recovery was calculated in accordance with the following formula. % Barrier Recovery={(TEWL [0 hour]−TEWL [1 hour])/(TEWL [0 hour]−TEWL [pre])}*100
The result was expressed as the average ± standard deviation of the % barrier recovery. […]

What does the source list for `CO[C@H]1CN(C(=O)c2cc3nc(-c4cc(F)c(Cl)c(F)c4)cc(N(C)c4c(C)cccc4F)n3n2)CC[C@H]1CC(=O)O` [Example 10, 2-((3R,4S)-1-(5-(4-chloro-3,5-difluorophenyl)-7-((2-fluoro-6-methylphenyl)(methyl)amino)pyrazolo[1,5-a]pyrimidine-2-carbonyl)-3-methoxypiperidin-4-yl)acetic acid]?
% Barrier recovery (3 mg/kg orally 1 hour before tape stripping): 24.2 ± 8.1%; % Barrier recovery (10 mg/kg orally 1 hour before tape stripping, p < 0.05 versus Vehicle): 53.5 ± 4.9 %
